In assay [1] the test system is LPS-stimulated BV-2 cells. Nature of the assay: ELISA (IL-6) release from LPS-activated BV-2 microglia. Particulars: vitamin D 1 μg/ml, DHA 20 μM; for effect on LPS-induced IL-6 release (in words): Example 1 concentrations: vitamin B6 29 μM, folic acid 24 μM, vitamin B12 0.2 μM, vitamin A 1.75 μM, versus LPS control; for IL-6 release as percentage of the IL-6 released by cells stimulated only with LPS: Example 1, high non-toxic concentrations: vitamin A 1.75 μM, EPA 20 μM, 24 h pretreatment, then 24 h with LPS 50 ng/ml plus same nutrients, LPS control = 100%. The assay is classed as cell-based, mouse. The text has this: (§1) BV-2 cell cultures: BV-2 cells were obtained from IRCCS (Azienda Ospedaliera Universitaria San Martino—IST Istituto Nazionale per la Ricerca sul Cancro, Genova, Italy). BV-2 cell lines are immortalized cell lines derived from C57bl/6 mouse. These are considered to closely resemble the physiology of primary microglia cells and form a well-established model for investigation in vitro (Henn et al., ALTEX, 2009, 26, 83-94). Lipopolysaccharide (LPS), an endotoxin derived from the cell wall of gram negative bacteria, is the most widely used agent to activate immune cells. Cells were cultured in Dulbecco's Modified Eagle Medium (DMEM, Gibco) supplemented with 10% of heat-inactivated fetal bovine serum (Invitrogen), 10,000 units/ml penicillin (Gibco), 10,000 μg/ml streptomycin (Gibco) and 200 mM L-glutamine (Gibco) and maintained at 37° C. and 5% CO2. Twenty-four hours before the experiment, cells were plated on 96 well plates (Corning) at a cell density of approximately 20,000 cells/well and maintained in DMEM supplemented with 2% fetal bovine serum, 10,000 units/ml penicillin, 10,000 μg/ml streptomycin and 200 mM L-glutamine, for the duration of the experiment.
(§2) Cell viability: Cell proliferation and viability were assessed with 2,3-bis(2-methoxy-4-nitro-5-sulfophenyl)-2H-tetrazolium-5-carboxanilide inner salt (XTT, Sigma) at a concentration of 1 mg/ml. Phenazine methosulfate (PMS, Sigma) at a concentration of 200 mg/ml was added as an electron coupling reagent. The XTT/PMS solution in sterile water (100 μl) was added to each well. After 2 h, the absorbance was measured at 450 nm (and 690 nm as a reference). The absorbance was corrected for the number of cells. The viability test was repeated for each experiment as a within plate control.
ELISA (IL-6): Cells were treated for 24 h with different combinations of nutrients. Subsequently, the medium was removed and cells were incubated for 24 h in fresh medium with LPS (50 ng/ml) combined with the same nutrients. Media were collected for measurement of IL-6 release. Collected samples were stored at −80° C. until further analysis. The cytokine levels were assessed using ELISA MAX™ Deluxe from Biolegend according to the manufacturer's protocol. Data were corrected for cell viability. Data are represented as percentage of the IL-6 released by cells stimulated only with LPS. To assess variability between the tests, data from the treatment with LPS alone were pooled and an average release between experiments was calculated for IL-6. For LPS alone treatment the IL-6 release is represented as the percentage of the average release between experiments.
(§3) Statistical analysis: All experiments were performed at least in triplicate. The data are presented as dots representing means and bars representing standard error mean (SEM). Due to the small sample size, non-parametric statistical tests were used. Data were analyzed with the Kruskal-Wallis H test and if the statistical significance was reached, Mann Whithey U test with Bonferroni-Holm post-hoc correction to allow multiple comparisons was performed. A difference was considered statistically significant when the probability (p) was <0.05.
(§4) BV-2 cells were pretreated for 24 h with different nutrients: (I) vitamin A (1.75 μM); (II) vitamin D (1 μg/ml); (III) DHA (20 μM); (IV) EPA (20 μM); (V) vitamin B6 (29 μM, including 19 μM already present in the culture medium); (VI) folic acid (24 μM, including 9 μM already present in the culture medium); (VII) vitamin B12 (0.2 μM). This was followed by 24 h incubation with LPS (50 ng/ml) combined with the same nutrients. Media were collected for measurement of NO release with the Griess assay (FIG. 1A) and IL-6 release with ELISA (FIG. 1B). NO and IL-6 levels are presented as the percentage of the concentration produced by cells treated with LPS alone (LPS control, dashed line). All graphs represent the results from 4 independent experiments (mean±SEM).
(ELISA stands for enzyme-linked immunosorbent assay.)

The subject of assay [2] is LPS-stimulated BV-2 cells. Nature of the assay: Griess assay (nitric oxide release) from LPS-activated BV-2 microglia. The assay is classed as cell-based, mouse. Particulars: vitamin D 1 μg/ml, DHA 20 μM; for effect on LPS-induced NO release (in words): Example 1 concentrations: vitamin B6 29 μM, folic acid 24 μM, vitamin B12 0.2 μM, vitamin A 1.75 μM, versus LPS control; for NO release as percentage of the NO released by cells stimulated only with LPS: Example 1, high non-toxic concentrations: vitamin A 1.75 μM, EPA 20 μM, 24 h pretreatment, then 24 h with LPS 50 ng/ml plus same nutrients, LPS control = 100%.
Text: as §1, §2
Griess assay (nitric oxide release): Cells were treated for 24 h with different combinations of nutrients. This treatment was followed by exchanging the medium for fresh medium with LPS (50 ng/ml) combined with the same nutrients. After incubation for 24 h, media were collected for measurement of NO release. The stable product of NO released by the BV-2 cells is NO2^−. The concentration of NO2^− was measured with a Griess assay Kit (Promega) according to the manufacturer's instructions. Data were corrected for cell viability (the viability of untreated control cells represented 100% of viability). Data are represented as percentage of the NO released by cells stimulated only with LPS. To assess variability between the tests, data from the treatment with LPS alone were pooled and an average release between experiments was calculated for NO. For treatment with LPS alone, the NO release is represented as the percentage of the average release between experiments.
as §3
as §4, with “line).” for “line). All graphs represent the results from 4 independent experiments (mean±SEM).”

As to `Cc1ncc(CO)c(CO)c1O.Cl` [Vitamin B6, vitamin B6], in assay [1], the “effect on LPS-induced IL-6 release (in words)” value is reported as “did not cause any significant effects”. The “effect on LPS-induced NO release (in words)” value in assay [2] is given as “did not cause any significant effect”.

Turning to `N[C@@H](Cc1c[nH]c2ccccc12)C(=O)O` [L-tryptophan], the “effect on LPS-induced IL-6 release (in words)” value in assay [1] is on record as “did not cause any significant effects”. The “effect on LPS-induced NO release (in words)” value in assay [2] is given as “did not cause any significant effect”.

For the molecule vitamin A, the “IL-6 release as percentage of the IL-6 released by cells stimulated only with LPS” value (shortened to “IL-6 release as percentage”) in assay [1] was determined as 42%. Moreover, in assay [2], the “NO release as percentage of the NO released by cells stimulated only with LPS” value (from here on “NO release as percentage”) was found to be 39%.

For the molecule `N[C@@H](CS)C(=O)O` [L-cysteine], the “effect on LPS-induced IL-6 release (in words)” value in assay [1] was “did not cause any significant effects”. Besides, the “effect on LPS-induced NO release (in words)” value in assay [2] is given as “did not cause any significant effect”.

With `CC/C=C\C/C=C\C/C=C\C/C=C\C/C=C\C/C=C\CCC(=O)O` [DHA, cis-4,7,10,13,16,19-docosahexaenoic acid], the “IL-6 release as percentage” value in assay [1] is 68%. Besides, the “NO release as percentage” value in assay [2] is given as 68%.

Take vitamin B12: in assay [1], the “effect on LPS-induced IL-6 release (in words)” value was “did not cause any significant effects”. Moreover, the “effect on LPS-induced NO release (in words)” value in assay [2] is given as “did not cause any significant effect”.

With `CC/C=C\C/C=C\C/C=C\C/C=C\C/C=C\CCCC(=O)O` [EPA, cis-5,8,11,14,17-eicosapentaenoic acid], the “IL-6 release as percentage” value in assay [1] is 70%. In addition, in assay [2], the “NO release as percentage” value is 80%.

Turning to `Nc1nc2ncc(CNc3ccc(C(=O)N[C@@H](CCC(=O)O)C(=O)O)cc3)nc2c(=O)[nH]1` [Vitamin B9, folic acid], the “effect on LPS-induced IL-6 release (in words)” value in assay [1] was “did not cause any significant effects”. In addition, the “effect on LPS-induced NO release (in words)” value in assay [2] is “did not cause any significant effect”.

In the case of `C=C1CC[C@H](O)C/C1=C/C=C1\CCC[C@]2(C)[C@@H]([C@H](C)CCCC(C)C)CC[C@@H]12` [Vitamin D, vitamin D3], in assay [1], the “IL-6 release as percentage” value amounted to 43%. Besides, the “NO release as percentage” value in assay [2] is given as 43%.

Source of the values: US10821120B2, “Method for controlling neuroinflammation” (N.V. NUTRICIA, priority 2016, dated 2020).
